Results as given in ChEMBL document CHEMBL4354836, “Heterotrimeric G Proteins as Therapeutic Targets in Drug Discovery” (J Med Chem, 2020).
Bridge positions count the residues as written; N and C are the ends. Square brackets hold non-standard residues; d marks the D form. Peptide text beside a SMILES is read from it. Leu(3R-O(AcLeu(3R-OH))) = CC(=O)N[C@H](C(=O)O[C@H](C(C)C)[C@H](N)C(=O)O)[C@H](O)C(C)C; NMeT = CN[C@H](C(=O)O)[C@@H](C)O; dPhLac = O=C(O)[C@H](O)Cc1ccccc1; NMeA = CN[C@@H](C)C(=O)O; NMeDha = C=C(NC)C(=O)O

How the values were obtained:
[1] = target: Guanine nucleotide-binding protein G(I)/G(S)/G(T) subunit beta-1/gamma-2 (Homo sapiens, UniProt P59768+P62873); assay: Inhibition of G-protein beta1gamma2 (unknown origin) by flow cytometry; assay type: protein-complex assay
Sequence of Guanine nucleotide-binding protein G(I)/G(S)/G(T) subunit beta-1/gamma-2 (P59768 2-71 limits assumed): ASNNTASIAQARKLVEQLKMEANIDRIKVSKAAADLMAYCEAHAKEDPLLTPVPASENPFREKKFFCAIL
Sequence of Guanine nucleotide-binding protein G(I)/G(S)/G(T) subunit beta-1/gamma-2 (P62873 2-340 limits assumed): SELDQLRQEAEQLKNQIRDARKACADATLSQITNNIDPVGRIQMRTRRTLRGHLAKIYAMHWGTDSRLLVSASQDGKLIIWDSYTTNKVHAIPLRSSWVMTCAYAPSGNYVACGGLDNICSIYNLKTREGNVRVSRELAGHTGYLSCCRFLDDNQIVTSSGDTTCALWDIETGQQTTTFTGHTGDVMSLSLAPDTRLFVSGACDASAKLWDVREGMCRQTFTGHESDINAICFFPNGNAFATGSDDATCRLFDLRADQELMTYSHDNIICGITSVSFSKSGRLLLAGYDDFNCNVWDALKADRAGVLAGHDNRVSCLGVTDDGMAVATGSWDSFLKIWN

GNAQ/GNA11 [2] = target: T1, GNAQ/GNA11 (Homo sapiens, UniProt P50148+P29992); assay: Inhibition of G-alphaq/11 in human platelet rich plasma assessed as inhibition of ADP-mediated calcium ion mobilization
T1 sequence (P50148 whole entry): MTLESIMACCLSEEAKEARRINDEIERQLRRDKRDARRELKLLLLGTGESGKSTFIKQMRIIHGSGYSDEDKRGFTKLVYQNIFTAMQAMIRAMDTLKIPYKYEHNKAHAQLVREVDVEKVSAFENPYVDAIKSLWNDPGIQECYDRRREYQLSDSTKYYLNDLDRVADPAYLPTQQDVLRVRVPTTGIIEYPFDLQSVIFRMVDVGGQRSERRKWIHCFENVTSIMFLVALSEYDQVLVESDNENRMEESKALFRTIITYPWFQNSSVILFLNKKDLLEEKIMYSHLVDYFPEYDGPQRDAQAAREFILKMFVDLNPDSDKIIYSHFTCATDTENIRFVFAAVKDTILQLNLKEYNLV
T1 sequence (P29992 whole entry): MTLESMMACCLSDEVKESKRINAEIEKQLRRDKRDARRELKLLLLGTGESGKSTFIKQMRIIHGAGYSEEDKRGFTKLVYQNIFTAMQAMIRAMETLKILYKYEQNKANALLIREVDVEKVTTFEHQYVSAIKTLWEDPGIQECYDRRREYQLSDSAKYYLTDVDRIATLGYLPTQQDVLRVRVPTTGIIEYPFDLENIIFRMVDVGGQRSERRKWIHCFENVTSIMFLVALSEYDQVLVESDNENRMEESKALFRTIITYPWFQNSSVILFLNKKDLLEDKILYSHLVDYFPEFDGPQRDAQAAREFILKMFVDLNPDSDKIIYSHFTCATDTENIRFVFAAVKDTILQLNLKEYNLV

GNAQ/GNA11 [3] = target: T1, GNAQ/GNA11; assay: Inhibition of G-alphaq/11 in human platelet rich plasma assessed as inhibition of ADP-mediated platelet aggregation
[4] = Inhibition of recombinant G-alpha subunit (unknown origin) assessed as inhibition of GDP release; design: species or system Homo sapiens

Compound	IC50 [1] [nM]	further results
O=C(O)C1CCCCC1c1c2ccc(=O)cc-2oc2cc(O)ccc12 (configuration not stated)	> 300000	–
O=C(O)C1CC23C(Cl)C(Cl)=C(Cl)C(Cl)C2(CC1c1c2ccc(=O)c(O)c-2oc2c(O)c(O)ccc12)C3(Cl)Cl (configuration not stated)	250	–
O=C1OC2(c3ccccc31)c1ccc(O)c(O)c1Oc1c2ccc(O)c1O	200	–
O=C(O)C1CCCCC1c1c2ccc(=O)c(O)c-2oc2c(O)c(O)ccc12 (configuration not stated)	200	–
C=C1C(=O)N[C@@H](C)C(=O)N(C)[C@@H](C)C(=O)N[C@@H]([C@H](OC(=O)[C@@H](NC(C)=O)[C@H](O)C(C)C)C(C)C)C(=O)N(C)[C@@H]([C@@H](C)OC)C(=O)O[C@H](C)[C@H](NC(C)=O)C(=O)O[C@H](Cc2ccccc2)C(=O)N1C (Ac-T[dPhLac][NMeDha]A[NMeA][Leu(3R-O(AcLeu(3R-OH)))][NMeT](Me); ester 1-C)	–	IC50 (GNAQ/GNA11 [2]): 100 to 1000 nM; IC50 (GNAQ/GNA11 [3]): 100 to 1000 nM
Cc1ccc(C(=O)Nc2ccc(S(=O)(=O)O)c3cc(S(=O)(=O)O)cc(S(=O)(=O)O)c23)cc1NC(=O)c1cccc(NC(=O)Nc2cccc(C(=O)Nc3cc(C(=O)Nc4ccc(S(=O)(=O)O)c5cc(S(=O)(=O)O)cc(S(=O)(=O)O)c45)ccc3C)c2)c1 [SURAMIN]	–	IC50 [4]: 240 nM
